In the NIST ThermoML archive (doi:10.1021/je100598x):

Assay: cn = amount concentration of the nth substance listed, in mol/dm3
Details: 101 kPa, Liquid, Direct current cell with electrodes

CCCCCCCCCCCC[N+](CC)(CC)CC.[Br-] [dodecyltriethylammonium bromide] + O
electrical conductivity [S/m]
Details | 288.15 K | 293.15 K | 298.15 K | 303.15 K | 308.15 K | 313.15 K | 318.15 K
c1 = 0.001316 | 0.0105 | 0.0119 | 0.0132 | 0.0146 | 0.01605 | 0.0176 | 0.019
c1 = 0.002597 | 0.02 | 0.0226 | 0.0252 | 0.028 | 0.0306 | 0.0335 | 0.0363
c1 = 0.003846 | 0.0289 | 0.0327 | 0.0365 | 0.0406 | 0.0443 | 0.0486 | 0.0526
c1 = 0.005063 | 0.0374 | 0.0423 | 0.0473 | 0.0526 | 0.0573 | 0.0631 | 0.0682
c1 = 0.00625 | 0.0456 | 0.0516 | 0.0576 | 0.0641 | 0.0698 | 0.0768 | 0.0831
c1 = 0.007407 | 0.053 | 0.0604 | 0.0676 | 0.0752 | 0.0819 | 0.09 | 0.0976
c1 = 0.008536 | 0.0609 | 0.0689 | 0.0771 | 0.0859 | 0.0934 | 0.1028 | 0.1114
c1 = 0.009638 | 0.0681 | 0.077 | 0.0862 | 0.0962 | 0.1047 | 0.115 | 0.1247
c1 = 0.01071 | 0.0751 | 0.085 | 0.095 | 0.106 | 0.116 | 0.127 | 0.137
c1 = 0.01177 | 0.0818 | 0.0926 | 0.1035 | 0.115 | 0.126 | 0.139 | 0.15
c1 = 0.01279 | 0.0884 | 0.1 | 0.1116 | 0.1245 | 0.136 | 0.149 | 0.1607
c1 = 0.01379 | 0.0946 | 0.107 | 0.119 | 0.1325 | 0.1445 | 0.159 | 0.173
c1 = 0.01477 | 0.0997 | 0.1119 | 0.1243 | 0.138 | 0.1513 | 0.167 | 0.1822
c1 = 0.01573 | 0.1033 | 0.115 | 0.128 | 0.1426 | 0.156 | 0.1726 | 0.189
c1 = 0.01667 | 0.106 | 0.118 | 0.1315 | 0.146 | 0.1607 | 0.178 | 0.196
c1 = 0.01758 | 0.108 | 0.121 | 0.1345 | 0.15 | 0.165 | 0.1821 | 0.2
c1 = 0.01848 | 0.1105 | 0.1235 | 0.137 | 0.1528 | 0.169 | 0.186 | 0.206
c1 = 0.01936 | 0.1125 | 0.126 | 0.1401 | 0.156 | 0.1721 | 0.1911 | 0.211
c1 = 0.02021 | 0.1144 | 0.128 | 0.1427 | 0.159 | 0.175 | 0.195 | 0.215
c1 = 0.02105 | 0.116 | 0.1303 | 0.145 | 0.1616 | 0.179 | 0.199 | 0.22
c1 = 0.02188 | 0.118 | 0.1324 | 0.148 | 0.1645 | 0.1821 | 0.202 | 0.224
c1 = 0.02268 | 0.12 | 0.1344 | 0.15 | 0.167 | 0.185 | 0.206 | 0.228
c1 = 0.02347 | 0.1215 | 0.136 | 0.1524 | 0.17 | 0.189 | 0.209 | 0.232
c1 = 0.02424 | 0.1231 | 0.138 | 0.1546 | 0.1723 | 0.1916 | 0.213 | 0.236
c1 = 0.025 | 0.125 | 0.1403 | 0.157 | 0.175 | 0.1946 | 0.216 | 0.24

CCCCCCCCCCCC[N+](C)(C)C.[Br-] [dodecyltrimethylammonium bromide] + O
electrical conductivity [S/m]
Details | 288.15 K | 293.15 K | 298.15 K | 303.15 K | 308.15 K | 313.15 K | 318.15 K
c1 = 0.001961 | 0.0157 | 0.0175 | 0.0196 | 0.0218 | 0.0238 | 0.0261 | 0.0279
c1 = 0.003846 | 0.0294 | 0.0332 | 0.0372 | 0.0411 | 0.045 | 0.0494 | 0.0531
c1 = 0.00566 | 0.0421 | 0.0478 | 0.0533 | 0.0592 | 0.0647 | 0.0711 | 0.076
c1 = 0.007407 | 0.0542 | 0.0614 | 0.0689 | 0.0762 | 0.0833 | 0.0914 | 0.0969
c1 = 0.009091 | 0.0654 | 0.0743 | 0.0833 | 0.0921 | 0.1007 | 0.1109 | 0.119
c1 = 0.01071 | 0.0762 | 0.0865 | 0.0964 | 0.107 | 0.117 | 0.129 | 0.139
c1 = 0.01228 | 0.0863 | 0.098 | 0.11 | 0.1218 | 0.1328 | 0.146 | 0.158
c1 = 0.01379 | 0.0954 | 0.109 | 0.1222 | 0.136 | 0.148 | 0.1623 | 0.175
c1 = 0.01525 | 0.105 | 0.119 | 0.1337 | 0.148 | 0.162 | 0.178 | 0.1919
c1 = 0.01667 | 0.1103 | 0.125 | 0.1405 | 0.157 | 0.1727 | 0.1907 | 0.206
c1 = 0.01758 | 0.1125 | 0.128 | 0.1433 | 0.1605 | 0.177 | 0.197 | 0.215
c1 = 0.01848 | 0.1143 | 0.13 | 0.146 | 0.1634 | 0.1807 | 0.201 | 0.222
c1 = 0.01936 | 0.116 | 0.1315 | 0.148 | 0.166 | 0.1837 | 0.205 | 0.226
c1 = 0.02021 | 0.117 | 0.1332 | 0.1501 | 0.168 | 0.187 | 0.209 | 0.23
c1 = 0.02105 | 0.119 | 0.135 | 0.1521 | 0.17 | 0.19 | 0.212 | 0.234
c1 = 0.02188 | 0.1203 | 0.137 | 0.154 | 0.172 | 0.1922 | 0.215 | 0.238
c1 = 0.02268 | 0.1216 | 0.138 | 0.156 | 0.1741 | 0.195 | 0.218 | 0.242
c1 = 0.02347 | 0.1229 | 0.14 | 0.158 | 0.176 | 0.198 | 0.22 | 0.246
c1 = 0.02424 | 0.1242 | 0.1411 | 0.159 | 0.178 | 0.2 | 0.223 | 0.249
c1 = 0.025 | 0.126 | 0.1425 | 0.161 | 0.1805 | 0.203 | 0.226 | 0.252
c1 = 0.02611 | 0.127 | 0.145 | 0.1636 | 0.1831 | 0.206 | 0.23 | 0.258
c1 = 0.02718 | 0.129 | 0.147 | 0.166 | 0.186 | 0.21 | 0.234 | 0.263
c1 = 0.02823 | 0.131 | 0.149 | 0.169 | 0.189 | 0.213 | 0.238 | 0.268
c1 = 0.02925 | 0.1327 | 0.151 | 0.171 | 0.1912 | 0.217 | 0.242 | 0.272
c1 = 0.03023 | 0.1344 | 0.1529 | 0.1733 | 0.1937 | 0.22 | 0.246 | 0.277

CCCCCCCCCCCC[N+](CCC)(CCC)CCC.[Br-] [dodecyltripropylammonium bromide] + O
electrical conductivity [S/m]
Details | 288.15 K | 293.15 K | 298.15 K | 303.15 K | 308.15 K | 313.15 K | 318.15 K
c1 = 0.001055 | 0.00819 | 0.00909 | 0.01006 | 0.01131 | 0.01244 | 0.0137 | 0.0147
c1 = 0.002089 | 0.0153 | 0.01734 | 0.01942 | 0.0217 | 0.0238 | 0.0261 | 0.0282
c1 = 0.003101 | 0.0222 | 0.025 | 0.0282 | 0.0316 | 0.0345 | 0.038 | 0.0412
c1 = 0.004092 | 0.0285 | 0.0326 | 0.0367 | 0.041 | 0.0449 | 0.0496 | 0.0538
c1 = 0.005063 | 0.0346 | 0.0398 | 0.0448 | 0.0501 | 0.0546 | 0.0605 | 0.0657
c1 = 0.006015 | 0.0405 | 0.0467 | 0.0527 | 0.059 | 0.0643 | 0.0712 | 0.0774
c1 = 0.006948 | 0.0461 | 0.0533 | 0.0599 | 0.0675 | 0.0741 | 0.0816 | 0.0886
c1 = 0.007862 | 0.0516 | 0.0594 | 0.0674 | 0.0757 | 0.083 | 0.0912 | 0.0991
c1 = 0.008759 | 0.0566 | 0.0658 | 0.0743 | 0.0832 | 0.0913 | 0.1001 | 0.109
c1 = 0.009639 | 0.0619 | 0.0714 | 0.0804 | 0.0896 | 0.0982 | 0.108 | 0.117
c1 = 0.0105 | 0.0661 | 0.0761 | 0.0846 | 0.0945 | 0.1035 | 0.1136 | 0.1242
c1 = 0.01135 | 0.0702 | 0.0797 | 0.0883 | 0.0984 | 0.108 | 0.118 | 0.13
c1 = 0.01218 | 0.0731 | 0.0825 | 0.0919 | 0.1018 | 0.1117 | 0.1228 | 0.1348
c1 = 0.01319 | 0.0759 | 0.0851 | 0.0953 | 0.106 | 0.116 | 0.128 | 0.1405
c1 = 0.01419 | 0.0783 | 0.0883 | 0.0985 | 0.109 | 0.1203 | 0.1325 | 0.146
c1 = 0.01516 | 0.0806 | 0.0906 | 0.1015 | 0.1128 | 0.1242 | 0.137 | 0.1512
c1 = 0.01657 | 0.0837 | 0.0942 | 0.106 | 0.118 | 0.13 | 0.1433 | 0.157
c1 = 0.01794 | 0.0866 | 0.0976 | 0.11 | 0.1224 | 0.135 | 0.149 | 0.165
c1 = 0.01927 | 0.0895 | 0.1009 | 0.1137 | 0.127 | 0.1404 | 0.155 | 0.1719
c1 = 0.02055 | 0.0921 | 0.1041 | 0.117 | 0.1312 | 0.145 | 0.161 | 0.178
c1 = 0.02179 | 0.0947 | 0.107 | 0.1211 | 0.135 | 0.15 | 0.166 | 0.1843
c1 = 0.023 | 0.0973 | 0.1101 | 0.1245 | 0.139 | 0.1545 | 0.1709 | 0.1906
c1 = 0.02417 | 0.0996 | 0.113 | 0.128 | 0.1433 | 0.159 | 0.175 | 0.196
